# Reference: patent US4859669A, “Antiinflammatory and anti-hyperproliferative naphthyridin-4-ones” (Schering Corporation, priority 1987, dated 1989)
# Where two headings read alike, the source gives them in different places.
# Assays:
# 5-lipoxygenase = target: T1, 5-lipoxygenase (Rattus norvegicus, UniProt P12527); assay: Lipoxygenase assay: arachidonic acid metabolism in rat neutrophils; format: cell-based; details: compound 5×10^-5 Molar
# T1 construct: endogenous in cells; host or cells: neutrophils isolated from the pleural exudate of male Wistar-Lewis rats (given "Witar-Lewis" in the source) after BSA / anti-BSA challenge
# T1 sequence (P12527 1-673): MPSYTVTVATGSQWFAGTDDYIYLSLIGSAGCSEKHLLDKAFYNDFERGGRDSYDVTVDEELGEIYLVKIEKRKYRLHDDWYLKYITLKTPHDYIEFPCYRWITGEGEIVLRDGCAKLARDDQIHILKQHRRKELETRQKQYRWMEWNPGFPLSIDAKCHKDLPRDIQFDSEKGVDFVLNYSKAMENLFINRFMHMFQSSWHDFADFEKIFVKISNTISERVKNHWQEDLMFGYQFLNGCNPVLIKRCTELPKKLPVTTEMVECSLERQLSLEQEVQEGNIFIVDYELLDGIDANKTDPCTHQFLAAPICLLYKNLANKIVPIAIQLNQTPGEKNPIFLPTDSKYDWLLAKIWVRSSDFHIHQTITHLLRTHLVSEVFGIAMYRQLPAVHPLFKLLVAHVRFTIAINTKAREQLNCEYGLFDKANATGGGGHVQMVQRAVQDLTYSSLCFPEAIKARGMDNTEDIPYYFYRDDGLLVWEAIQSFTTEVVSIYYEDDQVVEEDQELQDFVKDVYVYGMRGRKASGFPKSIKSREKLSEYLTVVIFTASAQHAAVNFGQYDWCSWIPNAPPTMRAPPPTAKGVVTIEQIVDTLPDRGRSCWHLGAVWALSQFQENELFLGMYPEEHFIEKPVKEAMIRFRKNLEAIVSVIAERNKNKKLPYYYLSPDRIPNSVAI
# Experimental: The effect of the compounds of the invention on 5-lipoxygenase activity is determined using rat neutrophils. Male Witar-Lewis rats are injected intravenously with 5 mg BSA in 0.2 ml pyrogen free saline followed by an intrapleural injection of 500 ug of the IgG fraction of rabbit anti-BSA (Cappel Labs., Lot 17782) in 0.2 ml pyrogen free saline. Injections are made under light ether anesthesia. Four hours later, the pleural cavity exudate consisting of 85 to 95% neutrophils is removed. Neutrophils are isolated from the pleural exudates by centrifugation of 4° C. for 10 min at 200× g. The cell pellet is resuspended in 17 mM Tris is HCl buffer, pH 7.2, containing 0.75% NH4 Cl to lyse contaminating erythrocytes followed by centrifugation at 4° C. for 5 min at 200× g. The pelleted neutrophils are rewashed in 50 mM Tris HCl, pH 7.4, containing 100 mM NaCl, followed by the same centrifugation. The cell pellet is resuspended in 50 mM Tris HCl, pH 7.4, containing 100 mM NaCl and 1 mM CaCl2, at 3-12×10^7 intact neutrophils per ml.
# Solutions of compounds in methanol are dried, then resuspended in the cell suspension for 4 min. Arachidonic acid methabolism is determined by incubating 0.1 ml of this suspension with 40 μM [1-^14 C] arachidonic acid (AA) (Amersham, 59 Ci/mole), in the presence of 0.1% BRIJ 56 and 10 μM A23187. Arachidonic acid metabolism as well as the various drug and reagent abbreviations are described in detail in Arch. Dermatol, Vol. 119, pages 541 to 547 (July 1983), the teachings of which are incorporated herein by reference. Assays run in triplicate are initiated by adding cells with inhibitor to a film of the BRIJ 56, arachidonic acid and A23187 37° C. After one minute, reactions are terminated by the addition of 2.4 ml of a chloroform:methanol (1:1 v/v) mixture and 0.9 ml of 0.1% formic acid. […] Products, leukotriene B4 (LTB4), 12-hydroxy heptadecatrienoic acid (HHT) and 5-hydroxy icosatetraenoic acid (5-HETE), are located by autoradiography and appropriate regions of the thin layer plates are scraped and counted in a liquid scintillation counter. […]
# [1] = system: Male Lewis inbred albino rats; assay: Reversed passive Arthus reaction (RPAR), rat paw volume; format: in vivo; details: po, 1 h, dosed one hour prior to sensitization with BSA
# Experimental: REVERSED PASSIVE ARTHUS REACTION (RPAR) ANIMALS, MATERIALS AND METHODS
# Male Lewis inbred albino rats weighting 180-220 grams obtained from Charles River Breeding Laboratories are used in these experiments. The rats are housed 3 animals/cage and food and water are allowed ad libitum. The animals are numbered 1-3 in each cage and color marked for identification purposes.
# All reagents and drugs are prepared just prior to the study. Crystallized and lyophilized bovine serum albumin (BSA), obtained from Sigma Chemical Company, is solubilized without shaking in cold sterile pyrogen free saline (10 mg/ml). Lyophilized anti-bovine serum albumin (IgG Fraction), obtained from Cappel Laboratories, is suspended in sterile distilled water and diluted with cold pyrogen free saline (PFS) just prior to use. The final concentration of anti-bovine serum albumin is 0.5 mg/ml of PFS. Both BSA and anti-BSA solutions are iced during use. Drugs are suspended or solubilized in an aqueous solution of methyl cellulose (MC) with a homogenizer just prior to administration.
# Groups of animals (6/group) are dosed with drug in MC by gavage one hour prior to sensitization with BSA. […] The volume of mercury displaced is converted to weight and recorded. […] Paw volumes are also recorded with a plethysmograph during the development of the inflammation at 2 and 4 hours post-challenge.
# pleural cavity of rats = assay: Reverse passive Arthus reaction in the pleural cavity of rats (Myers et al.); format: in vivo; details: po; rat
# Text: Another procedure for testing for acute antiinflammatory activity measures the reverse passive Arthus reaction in the pleural cavity of rats as described in Myers et al., Inflammation, Vol. 9, No. 1, 1985, pp. 91-98.
inhibition at 50 µM (5-lipoxygenase; read-out: inhibition of HETE production) [%],inhibition at 50 µM (5-lipoxygenase; read-out: inhibition of HHT production) [%],inhibition at 50 µM (5-lipoxygenase; read-out: inhibition of LTB4 production) [%],SMILES,ED50 [1] [mg/kg],ED50 (pleural cavity of rats) [mg/kg]
60,~40,60,"O=c1c2c(c3cccnc3n1-c1ccccc1)N(c1ccccc1)CC2 [1,2,3,5-tetrahydro-1,5-diphenyl-4H-pyrrolo[3,2-c][1,8]napthyridin-4-one]",–,–
–,–,–,"O=c1c2c(c3cccnc3n1-c1ccccc1)NCC2 [1,2,3,5-tetrahydro-5-phenyl-4H-pyrrolo[3,2-c][1,8]naphthyridin-4-one]",~25,< 25
–,–,–,"CCOC(=O)N1CCc2c1c1cccnc1n(-c1ccccc1)c2=O [2,3,4,5-tetrahydro-4-oxo-5-phenyl-1H-pyrrolo[3,2-c][1,8]napthyridine-1-carboxylic acid, ethyl ester]",–,~25
